{"source": "patent US8143263B2", "about": "“Therapeutic agents” (Astrazeneca AB, priority 2008, dated 2012)"}
{"target": "T1, recombinant human pancreatic GLK (Homo sapiens, UniProt P35557)", "T1 sequence (P35557 1-465)": "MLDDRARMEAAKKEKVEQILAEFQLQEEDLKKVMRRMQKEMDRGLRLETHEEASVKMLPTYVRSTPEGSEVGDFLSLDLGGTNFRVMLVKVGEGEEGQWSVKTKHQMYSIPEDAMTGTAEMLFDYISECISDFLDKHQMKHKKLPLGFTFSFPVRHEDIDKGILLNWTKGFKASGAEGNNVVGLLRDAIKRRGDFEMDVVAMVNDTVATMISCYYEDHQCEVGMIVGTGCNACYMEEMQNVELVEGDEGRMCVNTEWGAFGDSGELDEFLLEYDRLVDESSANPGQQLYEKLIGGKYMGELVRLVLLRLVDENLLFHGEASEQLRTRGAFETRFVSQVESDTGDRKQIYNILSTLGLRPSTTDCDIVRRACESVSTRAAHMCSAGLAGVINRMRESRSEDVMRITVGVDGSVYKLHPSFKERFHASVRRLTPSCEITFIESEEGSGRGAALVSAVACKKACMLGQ", "experiment": "biochemical", "units": {"EC50": "nM"}}
{"smiles": "C[C@H](CO)OC[C@H](Oc1ncnc2c1cnn2-c1ncccc1Cl)C(=O)Nc1ccc(Cl)cn1", "note": "[Example 190, (2S)—N-(5-chloropyridin-2-yl)-2-(1-(3-chloropyridin-2-yl)-1H-pyrazolo[3,4-d]pyrimidin-4-yloxy)-3-((R)-1-hydroxypropan-2-yloxy)propanamide]", "EC50": 370}
{"smiles": "C[C@H](CO)OC[C@H](Oc1ncnc2c1cnn2-c1ccccc1Cl)C(=O)Nc1ccc(C#N)cn1", "note": "[Example 252, (2S)-2-[1-(2-chlorophenyl)pyrazolo[3,4-d]pyrimidin-4-yl]oxy-N-(5-cyano-2-pyridyl)-3-[(1R)-2-hydroxy-1-methyl-ethoxy]propanamide]", "EC50": 450}
{"smiles": "CCOC(Sc1ncnc2c1cnn2-c1ccccc1OC)C(=O)Nc1nc(C)cs1", "note": "(centres unmarked) [Example 71, 2-Ethoxy-2-{[1-(2-methoxyphenyl)-1H-pyrazolo[3,4-d]pyrimidin-4-yl]thio}-N-(4-methyl-1,3-thiazol-2-yl)acetamide]", "EC50": 1600}
{"smiles": "Cc1c(Cl)cccc1-n1ncc2c(O[C@@H](COCCO)C(=O)Nc3ccc(C#N)cn3)ncnc21", "note": "[Example 166, (2S)-2-[1-(3-chloro-2-methylphenyl)pyrazolo[4,5-e]pyrimidin-4-yl]oxy-N-(5-cyanopyridin-2-yl)-3-(2-hydroxyethoxy)propanamide]", "EC50": 2900}
{"smiles": "COCCC(Oc1ncnc2c1cnn2C(C)C)C(=O)Nc1ccc(C)cn1", "note": "(centres unmarked) [Example 76, 2-[(1-isopropyl-1H-pyrazolo[3,4-d]pyrimidin-4-yl)oxy]-4-methoxy-N-(5-methylpyridin-2-yl)butanamide]", "EC50": "≥ 100000"}
{"smiles": "CCCCCCC(Sc1ncnc2c1cnn2-c1ccccc1Cl)C(=O)Nc1ccon1", "note": "(centres unmarked) [Example 64, 2-{[1-(2-chlorophenyl)-1H-pyrazolo[3,4-d]pyrimidin-4-yl]thio}-N-isoxazol-3-yloctanamide]", "EC50": 10000}
{"smiles": "COCC(Oc1ncnc2c1cnn2-c1ccc(Cl)cc1Cl)C(=O)Nc1ccc(C)cn1", "note": "(centres unmarked) [Example 7, 2-{[1-(2,4-Dichlorophenyl)-1H-pyrazolo[3,4-d]pyrimidin-4-yl]oxy}-3-methoxy-N-(5-methylpyridin-2-yl)propanamide]", "EC50": 3700}
{"smiles": "CC(C)OC[C@H](Oc1ncnc2c1cnn2-c1ncccc1Cl)C(=O)Nc1ccc(S(C)(=O)=O)cn1", "note": "[Example 177, (2S)-2-(1-(3-chloropyridin-2-yl)-1H-pyrazolo[3,4-d]pyrimidin-4-yloxy)-3-isopropoxy-N-(5-(methylsulfonyl)pyridin-2-yl)propanamide]", "EC50": 1500}
{"smiles": "Cc1ccnc(NC(=O)C(COC(C)C)Oc2ncnc3c2cnn3-c2ccccc2Cl)c1", "note": "(centres unmarked) [Example 116, 2-[1-(2-chlorophenyl)pyrazolo[4,5-e]pyrimidin-4-yl]oxy-3-isopropoxy-N-(4-methyl-2-pyridyl)propanamide]", "EC50": 2300}
{"smiles": "CC(C)OCC(Oc1ncnc2c1cnn2-c1ccccc1Cl)C(=O)Nc1ccccn1", "note": "(centres unmarked) [Example 118, 2-[1-(2-chlorophenyl)pyrazolo[4,5-e]pyrimidin-4-yl]oxy-3-isopropoxy-N-(2-pyridyl)propanamide]", "EC50": 150}
{"smiles": "CCOC[C@H](Oc1ncnc2c1cnn2-c1ccccc1C(F)(F)F)C(=O)Nc1cnc(C)cn1", "note": "[Example 133, (2S)-3-ethoxy-N-(5-methylpyrazin-2-yl)-2-[1-[2-(trifluoromethyl)phenyl]pyrazolo[4,5-e]pyrimidin-4-yl]oxypropanamide]", "EC50": 1100}
{"smiles": "CC(C)OCC(Oc1ncnc2c1cnn2-c1ccccc1Cl)C(=O)Nc1ccncn1", "note": "(centres unmarked) [Example 120, 2-[1-(2-chlorophenyl)pyrazolo[4,5-e]pyrimidin-4-yl]oxy-3-isopropoxy-N-pyrimidin-4-yl-propanamide]", "EC50": 540}
{"smiles": "CC(C)OCC(Oc1ncnc2c1cnn2-c1ccccc1Cl)C(=O)Nc1cc(C#N)ccn1", "note": "(centres unmarked) [2-[1-(2-chlorophenyl)pyrazolo[4,5-e]pyrimidin-4-yl]oxy-N-(4-cyano-2-pyridyl)-3-isopropoxy-propanamide]", "EC50": "> 100000"}
{"smiles": "Cc1ccc(NC(=O)C(CCC(=O)O)Oc2ncnc3c2cnn3-c2ccccc2Cl)nc1", "note": "(centres unmarked) [Example 49, 4-{[1-(2-chlorophenyl)-1H-pyrazolo[3,4-d]pyrimidin-4-yl]oxy}-5-[(5-methylpyridin-2-yl)amino]-5-oxopentanoic acid]", "EC50": 34000}
